Source: paper PMC6675120, “Potent and selective inhibitors for M32 metallocarboxypeptidases identified from high-throughput screening of anti-kinetoplastid chemical boxes” (PLoS Neglected Tropical Diseases, 2019)

Experiments:
Purified rabbit lung ACE = target: T1, Purified rabbit lung ACE (Oryctolagus cuniculus, UniProt P12822); experiment: ACE assay with Abz-FRK(Dnp)P-OH, dose-response; assay type: biochemical; settings: dose-response 7,5 pM to 62,5 μM
T1 construct: Purified rabbit lung ACE (EC 3.4.15.1) was purchased from Sigma-Aldrich; purchased Sigma-Aldrich; host or cells: rabbit lung tissue
T1 sequence (P12822 34-1310): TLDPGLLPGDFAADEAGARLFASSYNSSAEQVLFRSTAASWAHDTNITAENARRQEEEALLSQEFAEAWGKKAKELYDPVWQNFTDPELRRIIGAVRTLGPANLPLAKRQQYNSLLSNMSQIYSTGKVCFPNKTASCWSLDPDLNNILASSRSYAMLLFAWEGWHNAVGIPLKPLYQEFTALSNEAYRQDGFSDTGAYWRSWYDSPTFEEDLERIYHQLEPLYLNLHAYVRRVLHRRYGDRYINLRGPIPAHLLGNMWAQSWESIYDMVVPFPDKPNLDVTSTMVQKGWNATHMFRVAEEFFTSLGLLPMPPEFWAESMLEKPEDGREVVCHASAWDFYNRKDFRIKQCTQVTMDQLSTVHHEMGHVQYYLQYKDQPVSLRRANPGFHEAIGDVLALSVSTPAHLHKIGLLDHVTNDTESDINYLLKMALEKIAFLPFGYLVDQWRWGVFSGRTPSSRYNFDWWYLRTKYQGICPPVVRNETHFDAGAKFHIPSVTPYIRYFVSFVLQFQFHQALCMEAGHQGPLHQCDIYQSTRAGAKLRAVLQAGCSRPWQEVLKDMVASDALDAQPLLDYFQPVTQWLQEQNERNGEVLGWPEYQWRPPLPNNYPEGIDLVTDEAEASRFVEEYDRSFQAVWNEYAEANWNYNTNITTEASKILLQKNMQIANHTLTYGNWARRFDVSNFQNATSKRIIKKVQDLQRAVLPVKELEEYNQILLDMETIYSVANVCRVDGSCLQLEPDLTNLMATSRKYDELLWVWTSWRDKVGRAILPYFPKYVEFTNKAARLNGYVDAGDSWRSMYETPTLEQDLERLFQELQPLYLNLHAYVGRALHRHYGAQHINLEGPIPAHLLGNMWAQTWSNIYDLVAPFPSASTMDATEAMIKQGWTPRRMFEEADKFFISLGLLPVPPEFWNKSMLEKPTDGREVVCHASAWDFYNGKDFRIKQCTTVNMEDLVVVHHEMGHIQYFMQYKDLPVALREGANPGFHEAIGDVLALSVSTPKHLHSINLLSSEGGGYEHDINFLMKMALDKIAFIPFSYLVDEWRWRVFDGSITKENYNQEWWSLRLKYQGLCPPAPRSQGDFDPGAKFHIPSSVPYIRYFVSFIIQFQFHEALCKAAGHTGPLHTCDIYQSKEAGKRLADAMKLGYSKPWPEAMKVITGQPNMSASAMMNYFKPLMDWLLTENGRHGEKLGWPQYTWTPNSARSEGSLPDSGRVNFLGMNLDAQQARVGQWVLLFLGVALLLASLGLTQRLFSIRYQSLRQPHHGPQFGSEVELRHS
Protocol: Because M32 MCPs show a strong topological similarity with ACE [22], we chose this enzyme to estimate the IC50 value for each molecule.
(A) Purified rabbit lung ACE was assayed at 37°C in 0,1 M Tris-HCl pH 7,0 buffer containing 50 mM NaCl, 10 mM ZnCl2 and 0,01% Triton X-100. […] NI, no inhibitor added. […] In all cases, solid lines represent the best fit of four-parameter Hill equation to experimental data (closed circles).
Purified rabbit lung ACE (EC 3.4.15.1) was purchased from Sigma-Aldrich. Enzyme activity was assayed fluorimetrically with Abz-FRK(Dnp)P-OH (ex/em = 320/420 nm) as substrate in buffer 0,1 M Tris-HCl, 50 mM NaCl, 10 mM ZnCl2, pH 7.0 containing 0,01% Triton X-100 as indicated in [23].

NIH 3T3 = test system: NIH 3T3; design: method as in https://pubchem.ncbi.nlm.nih.gov/compound/91800813; settings: ref https://pubchem.ncbi.nlm.nih.gov/compound/91800813, read-out: cytotoxicity IC50; cited from earlier work
HepG2 = test system: HepG2; design: method as in https://pubchem.ncbi.nlm.nih.gov/compound/91800813; settings: ref https://pubchem.ncbi.nlm.nih.gov/compound/91800813, read-out: cytotoxicity IC50; cited from earlier work
[1] = target: T. cruzi sterol 14-α demethylase (CYP51); design: method as in https://pubchem.ncbi.nlm.nih.gov/compound/91800813; settings: ref https://pubchem.ncbi.nlm.nih.gov/compound/91800813; cited from earlier work
T. cruzi = test system: T. cruzi; design: method as in https://pubchem.ncbi.nlm.nih.gov/compound/91800813; settings: ref https://pubchem.ncbi.nlm.nih.gov/compound/91800813; cited from earlier work
T. brucei = test system: T. brucei; design: method as in https://pubchem.ncbi.nlm.nih.gov/compound/91800813; settings: ref https://pubchem.ncbi.nlm.nih.gov/compound/91800813; cited from earlier work

**Q.** What does the source list for `N#Cc1ccc(S(=O)(=O)N2CCN(Cc3cccc(-c4ccncc4)c3)CC2)cc1` [TCMDC-143620]?
**A.** ACE inhibition (Purified rabbit lung ACE): inactive; IC50 (NIH 3T3): 13 µM; IC50 (HepG2): > 100 µM; IC50 [1]: 0.079 µM; activity against T. cruzi in culture (T. cruzi): potent activity; activity on T. brucei (T. brucei): moderate but measurable activity
